Assay results: ChEMBL document CHEMBL5584334, “Discovery of a Covalent Inhibitor of Pro-Caspase-1 Zymogen Blocking NLRP3 Inflammasome Activation and Pyroptosis” (J Med Chem, 2024)
pIC50: −log10 of the molar value. Active and inactive are the calls of the source. No cut-off for these calls is given here. Residues, ends and D or L forms follow the SMILES beside them. *: point of attachment. Cbz = O=C(OCc1ccccc1)*; CH2F = FC*

What was measured:
[1] = target: T1, Caspase-1 (Homo sapiens) (UniProt P29466); assay: Inhibition of recombinant human caspase-1 expressed in Escherichia coli BL21 cells assessed as remaining activity at 10 uM using […] as substrate incubated for 30 mins relative to control
T1 sequence (whole entry): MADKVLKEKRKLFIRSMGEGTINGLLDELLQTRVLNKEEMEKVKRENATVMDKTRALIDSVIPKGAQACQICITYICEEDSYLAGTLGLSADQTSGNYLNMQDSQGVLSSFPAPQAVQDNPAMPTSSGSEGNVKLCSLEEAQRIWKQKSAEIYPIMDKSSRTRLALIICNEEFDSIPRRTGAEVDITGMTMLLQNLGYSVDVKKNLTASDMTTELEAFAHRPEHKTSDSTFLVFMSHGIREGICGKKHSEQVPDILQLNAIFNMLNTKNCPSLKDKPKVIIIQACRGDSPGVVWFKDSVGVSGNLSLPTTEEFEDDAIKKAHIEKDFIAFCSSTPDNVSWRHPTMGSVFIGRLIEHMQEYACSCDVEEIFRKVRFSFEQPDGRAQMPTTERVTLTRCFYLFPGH

[2] = target: T1, Caspase-1 (Homo sapiens); assay: Inhibition of recombinant human caspase-1 expressed in Escherichia coli BL21 cells assessed as remaining activity at 100 uM using […] as substrate incubated for 30 mins relative to control
[3] = target: T2, Caspase-1 (Homo sapiens, UniProt P29466); assay: Inhibition of recombinant human caspase-1 expressed in Escherichia coli BL21 cells using […] as substrate incubated for 30 mins
T2 sequence (P29466 whole entry): T1 sequence (whole entry)

[4] = target: T1, Caspase-1 (Homo sapiens); assay: Inhibition of recombinant human caspase-1 expressed in Escherichia coli BL21 cells at 5 to 50 uM using […] as substrate incubated for 30 mins; conditions: dose 5-50 µM
[5] = target: T3, Caspase-3 (Mus musculus) (UniProt P70677); assay: Inhibition of cisplatin induced caspase-3 activation in mouse J774.A1 cells at 1 uM preincubated for 30 mins followed by cisplatin addition and incubated overnight; assay type: cell-based
T3 sequence (whole entry): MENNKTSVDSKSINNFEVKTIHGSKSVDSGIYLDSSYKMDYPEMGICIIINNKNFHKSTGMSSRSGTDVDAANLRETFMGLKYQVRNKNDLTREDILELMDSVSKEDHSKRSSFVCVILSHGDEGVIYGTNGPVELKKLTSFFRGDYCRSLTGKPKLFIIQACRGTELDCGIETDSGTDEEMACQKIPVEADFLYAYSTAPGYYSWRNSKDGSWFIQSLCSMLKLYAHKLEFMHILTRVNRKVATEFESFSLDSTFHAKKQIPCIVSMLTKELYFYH

[6] = target: T4, Caspase-7 (Mus musculus) (UniProt P97864); assay: Inhibition of cisplatin induced caspase-7 activation in mouse J774.A1 cells at 1 uM preincubated for 30 mins followed by cisplatin addition and incubated overnight; assay type: cell-based
T4 sequence (whole entry): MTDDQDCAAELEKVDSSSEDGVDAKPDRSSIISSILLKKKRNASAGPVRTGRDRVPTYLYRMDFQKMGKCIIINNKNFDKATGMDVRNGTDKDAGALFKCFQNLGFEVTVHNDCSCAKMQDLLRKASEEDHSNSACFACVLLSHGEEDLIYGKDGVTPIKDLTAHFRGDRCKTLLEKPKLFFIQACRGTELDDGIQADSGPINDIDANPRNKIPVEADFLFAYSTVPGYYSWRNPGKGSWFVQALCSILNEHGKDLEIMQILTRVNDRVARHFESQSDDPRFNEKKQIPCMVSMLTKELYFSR

[7] = target: T1, Caspase-1 (Homo sapiens); assay: Inhibition of caspase-1 activity (unknown origin); conditions: dose 50-300 µM
[8] = tested on: J774.A1; assay: Inhibition of IL-1beta release in mouse J774.A1 cells at 20 uM pretreated with LPS for 3 hrs followed by compound addition for 30 mins and nigericin stimulation for 45 mins; assay type: functional, cell-based; conditions: time 75.0 min
[9] = tested on: J774.A1; assay: Binding affinity to pro-caspase 1 in mouse J774.A1 cell lysates at 1 to 2 uM incubated for 2 hrs by pull-down assay; assay type: subcellular; conditions: dose 1-2 µM
[10] = tested on: J774.A1; assay: Binding affinity to pro-caspase 1 in mouse J774.A1 cell lysates at 1 to 2 uM incubated for 2 hrs in presence of 1'-benzyl 6-(tert-butyl) (1R,4R,6R)-4-isothiocyanato-5'-methoxy-2'-oxospiro[cyclohexane-1,3'-indolin]-2-ene-1',6-dicarboxylate by pull-down assay; assay type: subcellular; conditions: dose 1-2 µM
[11] = tested on: J774.A1; assay: Binding affinity to pro-caspase 1 in mouse J774.A1 cells at 50 uM pretreated with LPS for 3 hrs and nigericin stimulation for 45 mins followed by compound addition by pull-down assay; assay type: cell-based
[12] = tested on: J774.A1; assay: Binding affinity to pro-caspase 1 in mouse J774.A1 cells by Western blotting analysis; assay type: cell-based
[13] = target: NFU1 iron-sulfur cluster scaffold homolog, mitochondrial (Mus musculus) (UniProt Q9QZ23); assay: Binding affinity to Nfu1 in mouse J774.A1 cells lysate by mass-spectrophotometric assay; assay type: subcellular
Chain of NFU1 iron-sulfur cluster scaffold homolog, mitochondrial (Mus musculus) (Q9QZ23 whole entry): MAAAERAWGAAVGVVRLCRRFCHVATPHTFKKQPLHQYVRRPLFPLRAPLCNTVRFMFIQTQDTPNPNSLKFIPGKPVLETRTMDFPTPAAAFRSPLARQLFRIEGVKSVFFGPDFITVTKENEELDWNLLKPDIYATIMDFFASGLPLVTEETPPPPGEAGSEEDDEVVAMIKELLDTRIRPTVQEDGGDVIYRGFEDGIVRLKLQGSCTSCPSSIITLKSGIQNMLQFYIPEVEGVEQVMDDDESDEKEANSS

[14] = target: Thioredoxin (Mus musculus) (UniProt P10639); assay: Binding affinity to Txn in mouse J774.A1 cells lysate by mass-spectrophotometric assay; assay type: subcellular
Chain of Thioredoxin (Mus musculus) (P10639 whole entry, the tested form may be a part): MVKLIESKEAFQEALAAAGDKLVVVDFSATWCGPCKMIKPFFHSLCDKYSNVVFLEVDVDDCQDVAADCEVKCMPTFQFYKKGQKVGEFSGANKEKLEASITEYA

[15] = target: NACHT, LRR and PYD domains-containing protein 3 (Mus musculus) (UniProt Q8R4B8); assay: Inhibition of NLRP3 inflammasome activation activation in LPS/nigericin stimulated mouse J774.A1 cells assessed as reduction in IL-1beta production pretreated with LPS for 3 hrs prior to compound addition for 30 mins followed by nigericin addition and measured after 45 mins by ELISA; assay type: cell-based; conditions: dose 0.001-2000 nM, time 75.0 min
Chain of NACHT, LRR and PYD domains-containing protein 3 (Mus musculus) (Q8R4B8 whole entry, the tested form may be a part): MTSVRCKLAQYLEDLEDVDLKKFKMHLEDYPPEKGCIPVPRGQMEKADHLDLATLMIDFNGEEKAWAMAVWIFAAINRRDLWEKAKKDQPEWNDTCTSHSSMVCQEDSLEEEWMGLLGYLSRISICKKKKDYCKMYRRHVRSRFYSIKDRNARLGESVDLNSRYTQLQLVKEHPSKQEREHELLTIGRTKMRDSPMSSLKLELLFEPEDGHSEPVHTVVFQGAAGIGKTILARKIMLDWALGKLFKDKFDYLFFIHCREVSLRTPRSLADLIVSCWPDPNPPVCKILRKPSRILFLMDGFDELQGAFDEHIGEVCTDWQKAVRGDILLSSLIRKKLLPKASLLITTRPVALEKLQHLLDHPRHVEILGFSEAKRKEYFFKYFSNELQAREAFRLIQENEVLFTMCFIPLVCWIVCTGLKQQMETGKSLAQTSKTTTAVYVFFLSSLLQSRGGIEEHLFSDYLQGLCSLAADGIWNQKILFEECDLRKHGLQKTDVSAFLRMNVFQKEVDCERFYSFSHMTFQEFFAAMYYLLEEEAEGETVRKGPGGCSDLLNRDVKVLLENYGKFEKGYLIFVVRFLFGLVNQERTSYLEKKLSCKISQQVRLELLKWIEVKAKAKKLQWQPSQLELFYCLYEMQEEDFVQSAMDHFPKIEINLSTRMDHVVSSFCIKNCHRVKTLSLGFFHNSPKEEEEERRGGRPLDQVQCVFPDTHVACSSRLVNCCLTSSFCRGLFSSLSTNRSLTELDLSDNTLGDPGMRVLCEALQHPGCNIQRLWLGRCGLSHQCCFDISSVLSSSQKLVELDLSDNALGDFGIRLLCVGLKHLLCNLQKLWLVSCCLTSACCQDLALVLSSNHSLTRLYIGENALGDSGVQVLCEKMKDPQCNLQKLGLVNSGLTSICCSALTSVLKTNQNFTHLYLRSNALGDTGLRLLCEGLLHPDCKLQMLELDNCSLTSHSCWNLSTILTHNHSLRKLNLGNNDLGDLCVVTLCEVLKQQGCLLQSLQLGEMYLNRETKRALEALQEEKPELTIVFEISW

SMILES | Activity [1] [%] | Activity [2] [%] | pIC50 [3] | further results
CC1=C[C@@]2(C(=O)N(C(=O)OCc3ccccc3)c3ccccc32)[C@H](C(=O)OC(C)(C)C)C[C@H]1N=C=S | 93 | 84 | < 4.00 | –
CC(C)(C)OC(=O)[C@@H]1C[C@@H](N=C=S)C=C[C@@]12C(=O)N(C(=O)OCc1ccccc1)c1ccc(Cl)cc12 | 77 | 24 | 4.07 | –
COc1ccc2c(c1)[C@@]1(C(=O)N2C(=O)OCc2ccccc2)[C@@H](SC#N)C=CC[C@H]1C(=O)OC(C)(C)C | – | – | – | inhibition (active/not active) [4]: inactive
COC(=O)C[C@H](NC(=O)[C@H](C)NC(=O)[C@@H](NC(=O)OCc1ccccc1)C(C)C)C(=O)CF (Cbz-Val-Ala-Asp(OMe)-CH2F) | – | – | – | inhibition [5]: Active; inhibition [6]: Active
CC(C)(C)OC(=O)[C@@H]1C[C@@H](N=C=S)C=C[C@@]12C(=O)Nc1ccc(NC(=O)CCCC[C@@H]3SC[C@@H]4NC(=O)N[C@@H]43)cc12 | – | – | – | inhibition [7]: Dose-Dependent Effect; inhibition [8]: Active; Activity [9]: Active; Activity [10]: inactive; Activity [11]: Active; Activity [12]: Active; Activity [13]: Active; Activity [14]: Active
CC(C)(C)OC(=O)[C@@H]1C[C@@H](N=C=S)C=C[C@@]12C(=O)N(C(=O)OCc1ccccc1)c1ccc(F)cc12 | 81 | 17 | 4.09 | –
CC1=C[C@@]2(C(=O)N(C(=O)OCc3ccccc3)c3ccccc32)[C@H](C(=O)OC(C)(C)C)C[C@@]1(C)N=C=S | 103 | 91 | < 4.00 | –
CC(C)(C)OC(=O)[C@@H]1C[C@@H](N=C=S)C=C[C@@]12C(=O)N(C(=O)OCC1c3ccccc3-c3ccccc31)c1ccccc12 | 90 | 24 | 4.12 | –
Cc1ccc2c(c1)[C@]1(C=C[C@H](N=C=S)C[C@H]1C(=O)OC(C)(C)C)C(=O)N2C(=O)OCc1ccccc1 | 68 | 15 | 4.55 | –
COC(=O)N1C(=O)[C@@]2(C=C[C@H](N=C=S)C[C@H]2C(=O)OC(C)(C)C)c2ccccc21 | 68 | 34 | 4.24 | –
CC(C)(C)OC(=O)[C@@H]1C[C@@H](N=C=S)C=C[C@@]12C(=O)N(C(=O)OCc1ccccc1)c1cc(F)c(F)cc12 | 73 | 21 | 4.36 | –
CC(C)(C)OC(=O)[C@@H]1C[C@@H](N=C=S)C=C[C@@]12C(=O)N(C(=O)OCc1ccccc1)c1ccccc12 | 76 | 15 | 4.43 | –
S=C=NCc1ccccc1 | – | – | – | inhibition (active/not active) [4]: Active; inhibition [15]: Dose-Dependent Effect
CC(C)OC(=O)[C@@H]1C[C@@H](N=C=S)C=C[C@@]12C(=O)N(C(=O)OCc1ccccc1)c1ccccc12 | 104 | 19 | 4.14 | –
CC(C)(C)OC(=O)[C@@H]1C[C@@H](N=C=S)C=C[C@@]12C(=O)N(C(=O)OCc1ccccc1)c1cc(Br)ccc12 | 71 | 20 | 4.81 | –
COc1ccc2c(c1)[C@]1(C=C[C@@H](N=C=S)C[C@H]1C(=O)OC(C)(C)C)C(=O)N2C(=O)OCc1ccccc1 | – | – | – | inhibition (active/not active) [4]: Active

SMILES | Activity [1] [%] | Activity [2] [%] | pIC50 [3] | further results
O=C(Oc1ccccc1)[C@@H]1C[C@@H](N=C=S)C=C[C@@]12C(=O)N(C(=O)OCc1ccccc1)c1ccccc12 | 101 | 56 | < 4.00 | –
CC(C)(C)OC(=O)[C@@H]1C[C@@H](N=C=S)C=C[C@@]12C(=O)N(C(=O)OCc1ccccc1)c1ccc(I)cc12 | 88 | 61 | < 4.00 | –
CC(C)(C)OC(=O)[C@@H]1C[C@@H](NC(=S)Nc2ccccc2)C=C[C@@]12C(=O)N(C(=O)OCc1ccccc1)c1ccccc12 | 112 | 84 | < 4.00 | –
COC(=O)[C@@H]1C[C@@H](N=C=S)C=C[C@@]12C(=O)N(C(=O)OCc1ccccc1)c1ccccc12 | 78 | 9 | 4.53 | –
CC(C)(C)OC(=O)[C@@H]1CC=C[C@@H](SC#N)[C@@]12C(=O)Nc1ccc(NC(=O)CCCC[C@@H]3SC[C@@H]4NC(=O)N[C@@H]43)cc12 | – | – | – | inhibition [7]: inactive
O=C(c1ccccc1)[C@@H]1C[C@@H](N=C=S)C=C[C@@]12C(=O)N(C(=O)OCc1ccccc1)c1ccccc12 | 56 | 15 | 4.58 | –
COc1ccc2c(c1)[C@@]1(C=C[C@@H](N=C=S)C[C@@H]1C(=O)OC(C)(C)C)C(=O)N2C(=O)OCc1ccccc1 | – | – | – | inhibition (active/not active) [4]: Active
CCC1=C[C@@]2(C(=O)N(C(=O)OCc3ccccc3)c3ccccc32)[C@H](C(=O)OC(C)(C)C)C[C@@]1(CC)N=C=S | 108 | 90 | < 4.00 | –
CC(C)(C)OC(=O)[C@@H]1C[C@@H](N=C=S)C=C[C@@]12C(=O)N(C(=O)OCc1ccccc1)c1ccc(Br)cc12 | 92 | 31 | 4.05 | –
O=C(OCc1ccccc1)[C@@H]1C[C@@H](N=C=S)C=C[C@@]12C(=O)N(C(=O)OCc1ccccc1)c1ccccc12 | 104 | 42 | 4.07 | –
CC(C)(C)OC(=O)[C@@H]1C[C@@H](N=C=S)C=C[C@@]12C(=O)N(C(=O)OCc1ccccc1)c1c(F)cccc12 | 85 | 13 | 4.10 | –
CC(C)(C)OC(=O)[C@@H]1C[C@@H](NC(=S)NN)C=C[C@@]12C(=O)N(C(=O)OCc1ccccc1)c1ccccc12 | 107 | 84 | < 4.00 | –
C[S+]([O-])CCCCN=C=S (stereo unspecified) | – | – | – | inhibition (active/not active) [4]: inactive; inhibition [15]: Dose-Dependent Effect
S=C=NCCc1ccccc1 | – | – | – | inhibition (active/not active) [4]: inactive; inhibition [15]: Dose-Dependent Effect
COc1ccc2c(c1)[C@]1(C=C[C@H](N=C=S)C[C@H]1C(=O)OC(C)(C)C)C(=O)N2 | 75 | 10 | 4.39 | –
